The supplement of paper PMC10307832

Columns and labels:
Assay in all cases: relative viability (nuclei count vs DMSO), 5 days (fraction); higher = more cells survive
[1] = compound: Cc1ccc2nc(NCCN)c3ncc(C)n3c2c1 + COc1cc2c(Oc3ccc(NC(=O)C4(C(=O)Nc5ccc(F)cc5)CC4)cc3F)ccnc2cc1OCCCN1CCOCC1 [Foretinib] (partner 0.25 µM)
Method in brief: (§1)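 Relative viability equals treated-well nuclei counts divided by vehicle-well nuclei counts. Counts came from 4× images of lung cancer cell lines grown in 1536-well plates for 5 days after pin-tool dosing on the day after seeding. Dosing used one drug alone or a fixed anchor-drug dose plus five library-drug doses (not always all listed) in √10 steps, and values are medians of duplicate plates.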

[2] = compound: Cc1ccc2nc(NCCN)c3ncc(C)n3c2c1 + CS(=O)(=O)CCNCc1ccc(-c2ccc3ncnc(Nc4ccc(OCc5cccc(F)c5)c(Cl)c4)c3c2)o1 [Lapatinib] (partner 2 µM)
Method in brief: as §1

Salubrinal + OSI-027 = compound: O=C(/C=C/c1ccccc1)NC(NC(=S)Nc1cccc2cccnc12)C(Cl)(Cl)Cl [Salubrinal] + COc1cccc2cc(-c3nc([C@H]4CC[C@H](C(=O)O)CC4)n4ncnc(N)c34)[nH]c12 [OSI-027] (partner 0.5 µM)
Method in brief: as §1

Salubrinal + AZD7762 = compound: O=C(/C=C/c1ccccc1)NC(NC(=S)Nc1cccc2cccnc12)C(Cl)(Cl)Cl [Salubrinal] + NC(=O)Nc1cc(-c2cccc(F)c2)sc1C(=O)N[C@H]1CCCNC1 [AZD7762] (partner 0.2 µM)
Method in brief: as §1

| Cell Line | relative viability ([1]; first compound 0.04 µM) | relative viability ([1]; first compound 0.1265 µM) | relative viability ([1]; first compound 0.4 µM) | relative viability ([1]; first compound 1.265 µM) | relative viability ([1]; first compound 4 µM) | relative viability ([2]; first compound 0.04 µM) | relative viability ([2]; first compound 0.1265 µM) | relative viability ([2]; first compound 0.4 µM) | relative viability ([2]; first compound 1.265 µM) | relative viability ([2]; first compound 4 µM) | relative viability (Salubrinal + OSI-027; first compound 0.08 µM) | relative viability (Salubrinal + OSI-027; first compound 0.253 µM) | relative viability (Salubrinal + OSI-027; first compound 0.8 µM) | relative viability (Salubrinal + OSI-027; first compound 2.53 µM) | relative viability (Salubrinal + OSI-027; first compound 8 µM) | relative viability (Salubrinal + AZD7762; first compound 0.08 µM) | relative viability (Salubrinal + AZD7762; first compound 0.253 µM) | relative viability (Salubrinal + AZD7762; first compound 0.8 µM) | relative viability (Salubrinal + AZD7762; first compound 2.53 µM) | relative viability (Salubrinal + AZD7762; first compound 8 µM) |
| --- | --- | --- | --- | --- | --- | --- | --- | --- | --- | --- | --- | --- | --- | --- | --- | --- | --- | --- | --- | --- |
| NCI-H1395 | 0.998 | 0.971 | 0.947 | 0.722 | 0.989 | 0.936 | 0.917 | 0.958 | 0.994 | 0.803 | 0.705 | 0.675 | 0.682 | 0.605 | 0.624 | 0.376 | 0.443 | 0.389 | 0.432 | 0.385 |
| NCI-H1437 | 1.32 | 1.23 | 1.33 | 1.28 | 1.2 | 0.817 | 0.794 | 0.777 | 0.819 | 0.733 | 0.9 | 0.811 | 0.924 | 0.912 | 0.851 | 1.19 | 1.1 | 1.16 | 1.11 | 1.04 |
| NCI-H1651 | 0.682 | 0.744 | 0.825 | 0.727 | 0.759 | 0.853 | 0.879 | 0.841 | 0.894 | 0.737 | 0.954 | 0.599 | 0.794 | 0.827 | 0.563 | 0.464 | 0.423 | 0.546 | 0.484 | 0.388 |
| NCI-H1666 | 0.96 | 0.903 | 1.04 | 1.02 | 0.921 | 0.788 | 0.64 | 0.505 | 0.478 | 0.568 | 0.953 | 0.763 | 0.894 | 0.806 | 0.848 | 0.793 | 0.863 | 0.831 | 0.704 | 0.926 |
| NCI-H1734 | 0.911 | 0.903 | 0.78 | 0.95 | 0.801 | 1.11 | 1 | 1.13 | 1.07 | 0.941 | 0.724 | 0.572 | 0.633 | 0.542 | 0.636 | 0.596 | 0.657 | 0.613 | 0.572 | 0.515 |
| NCI-H1755 | 0.936 | 0.84 | 0.919 | 0.928 | 0.876 | 1.1 | 1.03 | 0.934 | 1.1 | 1.04 | 0.748 | 0.803 | 0.795 | 0.696 | 0.633 | 0.668 | 0.406 | 0.517 | 0.41 | 0.584 |
| NCI-H1793 | 0.79 | 0.68 | 0.672 | 0.615 | 0.748 | 0.942 | 0.697 | 0.734 | 0.581 | 0.737 | 0.308 | 0.331 | 0.307 | 0.23 | 0.236 | 0.676 | 0.407 | 0.505 | 0.366 | 0.276 |
| NCI-H1915 | 1.11 | 1.06 | – | 1.12 | 1.03 | 1.01 | – | 0.68 | 0.991 | 0.947 | 0.628 | 0.609 | 0.716 | 0.682 | 0.637 | 0.713 | – | 0.718 | 0.71 | 0.676 |
